Results from publication PMC6255697, “The major nectar protein of Brassica rapa is a non-specific lipid transfer protein, BrLTP2.1, with strong antifungal activity” (Journal of Experimental Botany, 2018).

Assays:
BrLTP2.1 [1] = biological target: T1, BrLTP2.1 (Brassica rapa, UniProt A0A8D9LMK4); assay: TNS displacement fluorescence; type: binding; settings: 2.5 uM protein and 2.5 uM TNS, ligand 0-10 uM, pH 7.0; competitive with TNS
T1 construct: gene BRAPAZ1V2_A03P14030.2; predicted mature protein, residues 27-98 of 98 (signal peptide removed), amplified from genomic DNA; N-terminal T7-tag and C-terminal His6 kept; pET21a(+) in E. coli SHuffle T7 Express lysY

BrLTP2.1 [2] = biological target: T1, BrLTP2.1; assay: TNS displacement fluorescence; protein lipid overlay; type: binding; settings: 2.5 uM protein and 2.5 uM TNS, ligand 0-10 uM, pH 7.0; competitive with TNS

T1 sequence (A0A8D9LMK4 entry or part of it): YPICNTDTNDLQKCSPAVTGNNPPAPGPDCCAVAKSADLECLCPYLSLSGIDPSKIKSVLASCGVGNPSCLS

CCCCCCCCCCCCCCCC(=O)O [palmitic acid]
TNS displacement fluorescence (BrLTP2.1 [1]): Each of the three free fatty acids tested strongly reduced TNS-dependent fluorescence

CCCCCCCCCCCCCCCCCC(=O)O [stearic acid]
TNS displacement fluorescence; protein lipid overlay (BrLTP2.1 [2]): Each of the three free fatty acids tested strongly reduced TNS-dependent fluorescence
